From patent US20130102591A1, “COMPOSITIONS AND METHODS FOR PREVENTION AND TREATMENT OF PULMONARY HYPERTENSION” (priority 2010, published 2013)
Entries after “also recorded” stand apart in the source; their conditions may differ.

Experiments:
[1] = test system: MCT-induced pulmonary hypertension; settings: reported in the literature; cited from earlier work
[2] = test system: MCT-induced histological alterations in the lung; experiment: Lung histology (optical microscopy) in the MCT rat pulmonary hypertension model; format: in vivo, Sprague-Dawley rats; settings: for Fibrosis score: 10 days starting 38 days after MCT; for Effect on histological lung injury (alveolar damage, inflammatory cell infiltrate, vascular smooth muscle hypertrophy), in words: groups 3 and 4 versus vehicle control (group 2)
Description: (§1) Adult male Sprague-Dawley rats (250-350 g) (3 groups; n=5 per group) were treated with a single subcutaneous injection of monocrotaline (MCT; 60 mg/kg), a plant poison that induces a well-characterized experimental model of pulmonary hypertension, or an equivalent volume of saline (2 ml/kg; control). […] At the conclusion of the 10-day dosing period, rats were anesthetized and instrumented, and resting hemodynamic indices were recorded.
The lower lobe of the right lung was fixed with formalin solution. After paraffin embedding, […] sections were stained with haematoxylin and eosin and observed in a Dialux 22 Leitz (Wetziar, Germany) microscope. The score of lung fibrosis was assessed on sections stained with Masson Trichrome staining. For morphometric evaluations, all three lobes of right lung were inspected. […] Results are expressed as the percentage of vessels presenting indices of disease relative to the total number of vessels counted in the sections.

[3] = Tolerability during 10-day dosing in MCT rats (body weight, activity level); format: in vivo, Sprague-Dawley rats
Description: as §1

[4] = test system: MCT-induced pulmonary hypertension; experiment: Mean pulmonary arterial pressure in the monocrotaline (MCT) rat pulmonary hypertension model; format: in vivo, Sprague-Dawley rats; settings: 10 days of therapy starting 38 days after MCT
Description: as §1
Rats were anesthetized with intramuscular ketamine (90 mg/kg) and pentobarbital sodium (15 mg/kg). The trachea was exposed and cannulated with a plastic tube that was connected to a Harvard ventilator. The animals were ventilated with room air at a tidal volume of 1.5 ml at a rate of 100 breaths/minute. A polyethylene catheter (PE-50) was inserted into the right carotid artery to measure the mean systemic arterial pressure (SAP). A polyvinyl (PV-1) catheter was inserted through the right jugular vein via the right atrium and ventricle into the pulmonary artery for measurement of the mean pulmonary arterial pressure (MPAP).

[5] = Solubility in solvents and aqueous liquids
[6] = Group 3: MCT + compound 1a, 1.5 mg/kg/day BID, IP
[7] = Group 4: MCT + compound 1a, 2 mg/kg/day BID, PO
[8] = listed as 3-nitratomethyl-2,2,5,5-tetramethylpyrrolidinyloxy

For `COc1ccccc1Oc1c(NS(=O)(=O)c2ccc(C(C)(C)C)cc2)nc(-c2ncccn2)nc1OCCO` [bosentan], the “Effect in the same rodent model with comparably delayed initiation of therapy” value [1] is listed as “no effect”.
In the case of `CC1(C)CC(CO[N+](=O)[O-])C(C)(C)N1[O]` (centres unmarked) [compound 1a, 3-nitratomethyl-2,2,5,5-tetramethylpyrrolidinyloxy], the “Protection by chronic oral (enteral) treatment compared with IP treatment” value ([2]; 2 mg/kg/day PO versus 1.5 mg/kg/day BID IP) is reported as “slightly more protective”, the Alveolar damage [2, 6] is reported as 0.50 ± 0.35 and the Angioedema score [2, 6] is reported as 10.00 ± 8.86 percentage of vessels. For the same compound, the Muscolaris thickening score [2, 6] was 0.00 ± 0.00 percentage of vessels, the Perivascular infiltrate score [2, 6] was 5.95 ± 5.71 percentage of vessels and the Fibrosis score [2, 6] was 0.80 ± 0.57. The Alveolar damage [2, 7] was 0.70 ± 0.45, the Angioedema score [2, 7] was 7.00 ± 2.78 percentage of vessels and the Muscolaris thickening score [2, 7] was 0.00 ± 0.00 percentage of vessels. For the same compound, the Perivascular infiltrate score [2, 7] was 6.06 ± 2.44 percentage of vessels, the Fibrosis score [2, 7] was 1.00 ± 0.79 and the “Effect on histological lung injury (alveolar damage, inflammatory cell infiltrate, vascular smooth muscle hypertrophy), in words” value [2] was “significantly reduced; also recorded: remarkably reduced”. The “Effect on histological lung injury (alveolar damage, inflammatory cell infiltrate, vascular smooth muscle hypertrophy), in words” value [2, 8] was “significantly reduced”, the “Effect on body weight or activity level” value [3] was “absence of any effect” and the Tolerability [3] was “well tolerated”. The “Effect on elevation of pulmonary (arterial) hypertension, in words” value [4] was “highly effective; also recorded: significantly reduced”, the “Effect on elevation of pulmonary (arterial) hypertension, in words” value [4, 8] was “significantly reduced” and the “Solubility in ethyl acetate and dimethylsulfoxide (DMSO)” value [5] was “soluble”. The “Solubility in non-toxic aqueous liquids suitable for human administration” value ([5]; water, saline, dextrose solution, polyethylene glycol) was “insoluble”.
